# In US6407288B1, “Naphthylsalicylanilides as antimicrobial and antiinflammatory agents” (The Research Foundation of State University of New York, priority 2000, dated 2002):
# Tests used:
# S. mutans = test: MIC microdilution, gram positive; format: cell-based, Streptococcus mutans; conditions: Table 1, Gram Positive
# Method: (§1) The MIC's for the compounds were determined by a modified microdilution tube dilution method described in “Methods for Dilution Antimicrobial Susceptibility Tests for Bacteria that Grow Aerobically” (National Committee for Clinical Laboratory Standards Approved Standards, 1997, NCCLS document M7-A4). In general the modifications were made because of the unique growth requirements for the fastidious oral organisms and for those bacteria that require anaerobic conditions. Reference is also made to “Methods for Antimicrobial Susceptibility of Anaerobic Bacteria” (National Committee for Clinical Laboratory Standards Approved Standards, 1997, NCCLS document M11-A4). Briefly, the methods were as follows. Cultures were grown for 18-24hrs (aerobic bacteria) or 48-72 hrs (anaerobic bacteria) in the appropriate medium. For aerobic bacteria full strength brain heart infusion medium (BHI, Difco) was used. For anaerobic bacteria, half strength BHI (18.5 g/L) was supplemented by adding yeast extract (10 g/L), hemin (0.29 mL of a stock solution containing 0.1 g/200 mL dH2O) and menadione (15 mL of a stock solution containing 0.15 mL in 30 mL 95% EtOH) was used. Initial cultures were diluted to approximately 1×10^8 CFU/mL for use as an inoculum. Each assay received 10 μL of the inoculum. The drugs were prepared from a stock solution contained in dimethyl sulfoxide (DMSO) and diluted into the culture medium. Final concentrations of the drugs ranged from 50 to 0.05 μg/assay. The tests were run in duplicate and were incubated appropriately with regard to oxygen requirements for 24 to 48 hrs as required. Anaerobic incubation was an atmosphere of 5% CO2, 10% H2, with the balance N2. The lowest concentration of an antimicrobial agent at which no visible growth is noted was referred to as the MIC.
# S. sanguis = test: MIC microdilution, gram positive; format: cell-based, Streptococcus sanguis; conditions: Table 1, Gram Positive
# Method: as §1
# S.salivarius = test: MIC microdilution, gram positive; format: cell-based, Streptococcus salivarius; conditions: Table 1, Gram Positive
# Method: as §1
# P. acnes 11828 = test: MIC microdilution, gram positive; format: cell-based, Propionibacterium acnes; conditions: Table 1, Gram Positive
# Method: as §1
# P. acnes 6922 = test: MIC microdilution, gram positive; format: cell-based, Propionibacterium acnes; conditions: Table 1, Gram Positive
# Method: as §1
# A. viscosus = test: MIC microdilution, gram positive; format: cell-based, Actinomyces viscosus; conditions: Table 2, Gram Positive
# Method: as §1
# S. aureus = test: MIC microdilution, gram positive; format: cell-based, Staphlococcus aureus
# Method: (§2) The MIC's for the compounds were determined by a modified microdilution tube dilution method described in “Methods for Dilution Antimicrobial Susceptibility Tests for Bacteria that Grow Aerobically” (National Committee for Clinical Laboratory Standards Approved Standards, 1997, NCCLS document M7-A4). In general the modifications were made because of the unique growth requirements for the fastidious oral organisms and for those bacteria that require anaerobic conditions. Reference is also made to “Methods for Antimicrobial Susceptibility of Anaerobic Bacteria” (National Committee for Clinical Laboratory Standards Approved Standards, 1997, NCCLS document M11-A4).
# (§3) Briefly, the methods were as follows. Cultures were grown for 18-24hrs (aerobic bacteria) or 48-72 hrs (anaerobic bacteria) in the appropriate medium. For aerobic bacteria full strength brain heart infusion medium (BHI, Difco) was used. For anaerobic bacteria, half strength BHI (18.5 g/L) was supplemented by adding yeast extract (10 g/L), hemin (0.29 mL of a stock solution containing 0.1 g/200 mL dH2O) and menadione (15 mL of a stock solution containing 0.15 mL in 30 mL 95% EtOH) was used. Initial cultures were diluted to approximately 1×10^8 CFU/mL for use as an inoculum. Each assay received 10 μL of the inoculum. The drugs were prepared from a stock solution contained in dimethyl sulfoxide (DMSO) and diluted into the culture medium. Final concentrations of the drugs ranged from 50 to 0.05 μg/assay. The tests were run in duplicate and were incubated appropriately with regard to oxygen requirements for 24 to 48 hrs as required. Anaerobic incubation was an atmosphere of 5% CO2, 10% H2, with the balance N2. The lowest concentration of an antimicrobial agent at which no visible growth is noted was referred to as the MIC.
# (§4) This embodiment describes the sensitivity of various staphylococcus strains to the compounds of the present invention. The staphylococcus species R is a strain 00-045-1209 from the Children's Hospital in Buffalo. It was isolated from the peritoneal cavity (fluid culture) of an individual. It was coagulase negative. The sensitivity of this strain was tested agaisnt several known antibiotics.
# Lact 7496 = test: MIC microdilution, gram positive; format: cell-based, Lactobacillus rhamnosus (casei); conditions: Table 2, Gram Positive
# Method: as §1
# M. luteus = test: MIC microdilution, gram positive; format: cell-based, Micrococcus luteus; conditions: Table 2, Gram Positive
# Method: as §1
# Fuso. 25586 = test: MIC microdilution, gram negative; format: cell-based, Fusobacterium nucleatum
# Method: (§5) The MIC's for the compounds were determined by a modified microdilution tube dilution method described in “Methods for Dilution Antimicrobial Susceptibility Tests for Bacteria that Grow Aerobically” (National Committee for Clinical Laboratory Standards Approved Standards, 1997, NCCLS document M7-A4). In general the modifications were made because of the unique growth requirements for the fastidious oral organisms and for those bacteria that require anaerobic conditions. Reference is also made to “Methods for Antimicrobial Susceptibility of Anaerobic Bacteria” (National Committee for Clinical Laboratory Standards Approved Standards, 1997, NCCLS document M11-A4). Briefly, the methods were as follows. Cultures were grown for 18-24hrs (aerobic bacteria) or 48-72 hrs (anaerobic bacteria) in the appropriate medium. For aerobic bacteria full strength brain heart infusion medium (BHI, Difco) was used. For anaerobic bacteria, half strength BHI (18.5 g/L) was supplemented by adding yeast extract (10 g/L), hemin (0.29 mL of a stock solution containing 0.1 g/200 mL dH2O) and menadione (15 mL of a stock solution containing 0.15 mL in 30 mL 95% EtOH) was used. Initial cultures were diluted to approximately 1×10^8 CFU/mL for use as an inoculum. Each assay received 10 μL of the inoculum. The drugs were prepared from a stock solution contained in dimethyl sulfoxide (DMSO) and diluted into the culture medium. Final concentrations of the drugs ranged from 50 to 0.05 μg/assay. The tests were run in duplicate and were incubated appropriately with regard to oxygen requirements for 24 to 48 hrs as required. Anaerobic incubation was an atmosphere of 5% CO2, 10% H2, with the balance N2. The lowest concentration of an antimicrobial agent at which no visible growth is noted was referred to as the MIC. […] The method used was the same as described in Example 1.
# Aa Y4 = test: MIC microdilution, gram negative; format: cell-based, Actinobacillus actinomycetemcomitans
# Method: as §5
# P. ging 381 = test: MIC microdilution, gram negative; format: cell-based, Porphyromonas gingivalis
# Method: as §5
# Pg 53977 = test: MIC microdilution, gram negative; format: cell-based, Porphyromonas gingivalis
# Method: as §5
# B. fragilis = test: MIC microdilution, gram negative; format: cell-based, Bacteroides fraglis
# Method: as §5
# Str. pn. R = test: Mean Streptococcus MIC; format: cell-based; conditions: Table 5, mean; strain resistant to penicillin and erythromycin
# Method: as §2, §3
# (§6) This embodiment illustrates the efficacy of the compounds of the present invention against Streptococcus strains. One of the strains, Str.pn.R was obtained from the Children's Hospital in Buffalo (strain 00-041-0614). […] The sensitivity of this strain was tested against several known antibiotics.
# Str. pn = test: Mean Streptococcus MIC; format: cell-based; conditions: Table 5, mean
# Method: as §2, §3, §6
# Str. pyo = test: Mean Streptococcus MIC; format: cell-based; conditions: Table 5, mean
# Method: as §2, §3, §6
# S. species R = test: Staphylococcus MIC; format: cell-based, staphylococcus species R; conditions: second Table 5 (Example 5); strain 00-045-1209
# Method: as §2, §3, §4
# [1] = system: Str.pn.R (strain 00-041-0614); test: Sensitivity of strain to known antibiotics; format: cell-based, Streptococcus; conditions: sensitive / resistant
# Method: as §6
# [2] = system: staphylococcus species R (strain 00-045-1209); test: Sensitivity of strain to known antibiotics; format: cell-based; conditions: sensitive / resistant
# Method: as §4
# [3] = Table 3 printed a second time, Gram Negative
MIC S. sanguis (S. sanguis) [micrograms/ml],MIC P. acnes 11828 (P. acnes 11828) [micrograms/ml],MIC P. acnes 6922 (P. acnes 6922) [micrograms/ml],MIC A. viscosus (A. viscosus) [micrograms/ml],MIC Lact 7496 (Lact 7496) [micrograms/ml],MIC M. luteus (M. luteus) [micrograms/ml],"MIC P. ging 381 (P. ging 381; Table 3, Gram Negative) [micrograms/ml]",MIC P. ging 381 (P. ging 381; [3]) [micrograms/ml],"MIC Pg 53977 (Pg 53977; Table 3, Gram Negative) [micrograms/ml]",MIC Pg 53977 (Pg 53977; [3]) [micrograms/ml],SMILES,MIC S. mutans (S. mutans),MIC S.salivarius (S.salivarius),"MIC S. aureus (S. aureus; Table 2, Gram Positive)",MIC S. aureus (S. aureus; second Table 5 (Example 5)),"MIC Fuso. 25586 (Fuso. 25586; Table 3, Gram Negative)",MIC Fuso. 25586 (Fuso. 25586; [3]),"MIC Aa Y4 (Aa Y4; Table 3, Gram Negative)",MIC Aa Y4 (Aa Y4; [3]),"MIC B. fragilis (B. fragilis; Table 3, Gram Negative)",MIC B. fragilis (B. fragilis; [3]),other results
6.3,12.5,6.3,1.6,12.5,3.1,0.8,0.8,0.8,0.8,N#Cc1cccc(NC(=O)c2cc(C(=O)c3ccc4ccccc4c3)ccc2O)c1 [NA2mC],6.3 micrograms/ml,50 micrograms/ml,NE (NE indicates that the drug was not effective at a concentration >50 micrograms/ml),NE (NE indicates that the drug was not effective at a concentration >50 micrograms/ml),NE (NE indicates that the drug was not effective at a concentration >50 micrograms/ml),NE (NE indicates that the drug was not effective at a concentration >50 micrograms/ml),NE (NE indicates that the drug was not effective at a concentration >50 micrograms/ml),NE (NE indicates that the drug was not effective at a concentration >50 micrograms/ml),3.1 micrograms/ml,3.1 micrograms/ml,Mean Streptococcus MIC values Str. pn. R (Str. pn. R): 6.25 micrograms/ml; Mean Streptococcus MIC values Str. pn (Str. pn): 0.91 micrograms/ml; Mean Streptococcus MIC values Str. pyo (Str. pyo): NE (NE indicates that the drug was not effective at a concentration >50 micrograms/ml); MIC S. species R (S. species R): NE (NE indicates that the drug was not effective at a concentration >50 micrograms/ml)
12.5,0.2,0.4,1.6,3.1,0.8,0.4,0.4,0.4,0.4,"CCCCCCCCCCCCS(=O)(=O)c1ccc(O)c(C(=O)Nc2cccc(C(F)(F)F)c2)c1 [TMF-12, reference compound]",NE (NE indicates that the drug was not effective at a concentration >50 micrograms/ml),NE (NE indicates that the drug was not effective at a concentration >50 micrograms/ml),NE (NE indicates that the drug was not effective at a concentration >50 micrograms/ml),NE (NE indicates that the drug was not effective at a concentration >50 micrograms/ml),NE (NE indicates that the drug was not effective at a concentration >50 micrograms/ml),NE (NE indicates that the drug was not effective at a concentration >50 micrograms/ml),NE (NE indicates that the drug was not effective at a concentration >50 micrograms/ml),NE (NE indicates that the drug was not effective at a concentration >50 micrograms/ml),NE (NE indicates that the drug was not effective at a concentration >50 micrograms/ml),NE (NE indicates that the drug was not effective at a concentration >50 micrograms/ml),Mean Streptococcus MIC values Str. pn. R (Str. pn. R): 0.78 micrograms/ml; Mean Streptococcus MIC values Str. pn (Str. pn): 0.65 micrograms/ml; Mean Streptococcus MIC values Str. pyo (Str. pyo): 0.47 micrograms/ml; MIC S. species R (S. species R): NE (NE indicates that the drug was not effective at a concentration >50 micrograms/ml)
–,–,–,–,–,–,–,–,–,–,CC[C@H]1OC(=O)[C@H](C)[C@@H](O[C@H]2C[C@@](C)(OC)[C@@H](O)[C@H](C)O2)[C@H](C)[C@@H](O[C@@H]2O[C@H](C)C[C@H](N(C)C)[C@H]2O)[C@](C)(O)C[C@@H](C)C(=O)[C@H](C)[C@@H](O)[C@]1(C)O [erythromycin],–,–,–,–,–,–,–,–,–,–,sensitivity of strain Str.pn.R to known antibiotics [1]: resistant; sensitivity of staphylococcus species R to known antibiotics [2]: resistant
